Assay results reported in patent US6444662B1 (Willmar Schwabe GmbH & Co., priority 1998, dated 2002).

Columns and labels:
[1] = Stability of hyperforin salts on storage at room temperature (content by HPLC); assay type: physicochemical; settings: for Change in the hyperforin content, difference after 1 week / Change in the hyperforin content, difference after 12 weeks / Change in the hyperforin content, difference after 4 weeks: room temperature, brown-glass bottles, without protective gas; for Change in the hyperforin content, difference after 1 week / Change in the hyperforin content, difference after 12 weeks / Initial value, hyperforin content (% of the stoichiometric content) / Change in the hyperforin content, difference after 4 weeks: HPLC; for Initial value, hyperforin content (% of the stoichiometric content): hyperforin (examples 1 to 20) or hyperforin+adhyperforin (examples 21 to 31)
Method: General: Melting points were measured with Elektrothermal® or B-545 (Büchi) apparatus; IR spectra were recorded with an IFS 28 (Bruker) IR-spectrometer on KBr blanks, NMR spectra with an AC 200 or Avance 200 (Bruker) in D4-methanol (200 MHz for ^1H and 50 MHz for ^13C; δ-values in ppm). HPLC determinations were performed using a Dynamax PDA-1 from Rainin, Voburn, Mass., USA. HPLC conditions (isocratic): adsorbant: Eurospher 100-C18, 10 μm. Eluant: Acetonitrile/water/phosphoric acid=85/15/0.3 (vol./vol.). Detection: 273 nm. […] Assay: Content stated in area-% with reference to the reference standard. […] Operating conditions: under red light or in darkened apparatus under protective gas (nitrogen or argon). […] They are calculated as hydrates. Abbreviations: MTBE=Methyl tert.-butyl ether. “98H/I”=n-heptane/isopropanol 98/2 (vol/vol). Mp.=melting point. anh.=anhydrous. Th=theoretical. sv=very strong.
1 This salt is used as the reference standard.

[2] = biological target: recombinant PKC-γ (Homo sapiens, UniProt P05129); test: Activation of protein kinase PKC-γ (enzyme test); assay type: biochemical; settings: control with 100 nM TPA set to 100%
Method: PKCγ activators are potentially suitable for activating cc-secretase. These activators are found in enzyme tests in which the recombinantly produced PKC-γ is suboptimally active. The test media were:
In the table, the control with 100 nM phorbol-12-myristate-13-acetate (TPA; stimulator of PKC-γ) was set to 100%.

[3] = tested on: α-secretase; test: Activation of α-secretase in secα1-transfected cells (Seap release); assay type: cell-based, human; settings: 60 min incubation, mean of triplicates
Description: As the APP cassette in both constructs begins with amino-acid 7 of the β-amyloid sequence, the recognition sequence for β-secretase in the sec-fusion proteins is absent. Cleavage by γ-secretase has not been described for human APLP-2, with the result that the specificity of the fusion proteins for α-secretase only is achieved by substitution of the trans-membrane domain of APLP-2 for APP. The expression plasmid secα1 was stably transfected into human neuronal cells SY5Y. Activation of α-secretase in these secα1-transfected cells is manifested in an increased release of Seap into the cell medium. The quantity of Seap is determined, and serves as a measure of the α-secretase activity.
Test conditions: 80 000 FL-2a cells/well. V=100 μl. Incubation time: 60 min.
Concentration of the substances: 10 μg/ml.
Mean values±s.d. of triplicates.
The activation of α-secretase by the phorbol ester TPA (100 ng/ml) was measured as the positive control.

Row | SMILES | Change in the hyperforin content, difference after 1 week [1] | Change in the hyperforin content, difference after 12 weeks [1] [%] | Initial value, hyperforin content (% of the stoichiometric content) ([1]; storage time 0) [%] | Increase in the activity of PKC-γ ([2]; substance dose 1 μg/ml) [%] | Increase in the activity of PKC-γ ([2]; substance dose 3 μg/ml) [%] | Increase in the activity of PKC-γ ([2]; substance dose 10 μg/ml) [%] | Change in the hyperforin content, difference after 4 weeks [1] | further results
1 | C1CCNC1.CC(C)=CCC[C@]1(C)C(CC=C(C)C)C[C@@]2(CC=C(C)C)C(=O)[C@]1(C(=O)C(C)C)C(=O)C(CC=C(C)C)=C2O (some centres unmarked) [Example 5, Pyrrolidine Salt of Hyperforin] | −0.5% | −3.2 | 93.7 | 3 | 20 | 48 |  | 
2 | CC(C)=CCC[C@]1(C)[C@@H](CC=C(C)C)C[C@@]2(CC=C(C)C)C(=O)[C@]1(C(=O)C(C)C)C(=O)C(CC=C(C)C)=C2O.[Na] [Example 1, Hyperforin Sodium Salt] |  |  |  | 9 | 30 | 56 |  | 
3 | CC(C)=CCC[C@]1(C)C(CC=C(C)C)C[C@@]2(CC=C(C)C)C(=O)[C@]1(C(=O)C(C)C)C(=O)C(CC=C(C)C)=C2O.COc1cc(CN)cc(OC)c1OC (some centres unmarked) [Example 3, 3,4,5-Trimethoxybenzylamine Salt of Hyperforin] | +1.1% | −5.0 | 87.2 |  |  |  | −1.1% | 
4 | CCCCCCCCCCCCCC(=O)O[C@@H]1[C@@H](C)[C@@]2(O)[C@@H](C=C(CO)C[C@]3(O)C(=O)C(C)=C[C@@H]23)[C@@H]2C(C)(C)[C@]12OC(C)=O [TPA, phorbol-12-myristate-13-acetate] |  |  |  |  |  |  |  | Activity of α-secretase (secreted alkaline phosphatase, Seap) ([3]; positive control, 100 ng/ml): 386 RLU
5 | CC(C)=CCCC1(C)C(CC=C(C)C)CC2(CC=C(C)C)C(=O)C1(C(=O)C(C)C)C(=O)C(CC=C(C)C)=C2O.NCCCNC1CCCCC1 (centres unmarked) [Example 15] | −2.0% | −9.9 | 90.8 |  |  |  | −2.0% | 
6 | C1CCC(NC2CCCCC2)CC1.CC(C)=CCC[C@]1(C)C(CC=C(C)C)C[C@@]2(CC=C(C)C)C(=O)[C@]1(C(=O)C(C)C)C(=O)C(CC=C(C)C)=C2O (some centres unmarked) [Example 2, N,N-Dicyclohexylamine Salt of Hyperforin] |  |  |  |  |  |  |  | Initial value, hyperforin content (titr.) ([1]; storage time 0, perchloric-acid titration): 100%
7 | CC(C)=CCC[C@]1(C)C(CC=C(C)C)C[C@@]2(CC=C(C)C)C(=O)[C@]1(C(=O)C(C)C)C(=O)C(CC=C(C)C)=C2O.Nc1ccncc1 (some centres unmarked) [Example 16] | +1.4% |  | 94.6 |  |  |  | +0.1% | 
8 | CC(C)=CCC[C@]1(C)[C@@H](CC=C(C)C)C[C@@]2(CC=C(C)C)C(=O)[C@]1(C(=O)C(C)C)C(=O)C(CC=C(C)C)=C2O [Hyperforin, hyperforin, reference compound] |  |  |  | 6 | 51 | 45 |  | Activity of α-secretase (secreted alkaline phosphatase, Seap) ([3]; 10 μg/ml, 80 000 cells/well): 441 RLU
